From patent US20250319032A1, “PHARMACEUTICAL COMPOSITIONS OF RIBOCICLIB” (Novartis AG, priority 2024, published 2025)

Experiments:
[1] = Bioanalysis and toxicokinetic evaluation of DMP433 in mouse plasma and tissues; format: in vivo; conditions: 100 mg/kg/day, Day 14
Description: (§1) In a previously conducted range-finding study (Labcorp Study Number 8526660) DMP433 was dosed orally in groups of 6 males and 6 females at 500, 100 or 50 mg/kg/day daily for up to 14 days. […] Where clinical signs were seen, animals had recovered prior to dosing the following day. A single Day 1 (Subgroup 1) female satellite animal was removed from the study due to the severity of the clinical observations. […] Where clinical signs were seen, animals had recovered prior to dosing the following day. […] Therefore, dosing in males and females will be conducted.
The blood samples will be processed. Determination of DMP433 in mouse plasma containing K2EDTA as an anticoagulant will be conducted by Labcorp Bioanalytical in accordance with Labcorp Policies, and all procedures will be conducted following method DMP4MPP validated under Labcorp study number 8527178.
Toxicokinetic parameters will be estimated using Phoenix® WinNonlin® version 8.1 or higher (Certara USA, Inc., Princeton, New Jersey). A non-compartmental approach consistent with the oral route of administration will be used for parameter estimation. […]
For determination of mean DMP433 concentrations, concentration values that are below the limit of quantitation will be treated as zero. […]
Bioanalytical data will be used as received for the toxicokinetic analysis. Toxicokinetic parameters will be calculated. […]

[2] = Stability of DMP433 dose formulations in vehicle; format: physicochemical; conditions: 0.5 and 50 mg/mL; 2 to 8° C. and 15 to 25° C., protected from light
Description: The vehicle control is 2.2 eq HCl 1.ON (˜40%)+28% as powder sulfobutylether-β-cyclodextrin (pH 2.0+0.5), with storage conditions in dispensary of 2 to 8° C. protected from light.
The test item formulation will be prepared daily, unless stability data supports less frequent preparation. The stability data will be generated under Labcorp Study Number 8528626. DMP433 formulations in vehicle at concentrations of 0.5 and 50 mg/mL have been confirmed as stable for up to 8 days at 2 to 8° C. and 15 to 25° C., both protected from light. The storage conditions in central dispensary will be 15 to 25° C. protected from light.
The formulation will be analysed (HPLC/UV analysis, Lapcorp method 8528626-01F, version in force on 22nd February 2024) to confirm that it achieves concentration and homogeneity. Samples (as shown in the following tables, where n/a means not applicable) will be taken from the main experiment during week 1 and week 4 and analysed accordingly.

[3] = system: lacZ transgene within the bone marrow, liver, kidney, and duodenum from treated Muta™ Mice; assay: Transgenic gene mutation assay in Muta™ Mice (lacZ); format: in vivo, Muta™ Mouse CD2-lacZ80/HazfBR; conditions: oral gavage, 28 consecutive days, sampling day 31
Excerpt: A study is on-going, with the objective of evaluating the potential of DMP433 to induce gene mutations in the lacZ transgene within the bone marrow, liver, kidney, and duodenum from treated Muta™ Mice. The bone marrow and liver will be examined as these tissues are expected to be highly exposed to DMP433 upon oral gavage dosing and/or representative of organs with fast and slow dividing cells respectively. The duodenum will be assessed as a site of contact tissue following oral gavage dosing. The kidney will also be examined as a standard target organ for tumours for nitrosamines.
The animals used will be transgenic mouse of the strain Muta™ Mouse CD2-lacZ80/HazfBR (supplied by Charles River, UK). The animals will have an age range of approximately 8 to 12 weeks on the first day of dosing, and a weight range of approximately 18 to 35 g. […]
Based on the toxicity and bioanalytical data generated under Labcorp Study Number 8526660, the maximum tolerated dose level (MTD) of 100 mg/kg/day* will be used as the high dose level. […] As there is a crossover in exposure between males and females, vehicle controls and the MTD of 100 mg/kg/day only will be evaluated in females. • group 4 male animals given 80 mg/kg/day from Day 4 of dosing onwards due to mortality/morbidity. […]

[4] = Range-finding oral toxicity study of DMP433 (Labcorp Study Number 8526660); format: in vivo, mouse; conditions: both sexes, Muta™ Mouse, mouse, in vivo; oral, daily; read-out: maximum tolerated dose level (MTD)
Description: as §1
(§2) Based on the toxicity and bioanalytical data generated under Labcorp Study Number 8526660, the maximum tolerated dose level (MTD) of 100 mg/kg/day* will be used as the high dose level. Two further doses of 50 and 25 mg/kg/day, will also be tested in males (OECD, 2022). As there is a crossover in exposure between males and females, vehicle controls and the MTD of 100 mg/kg/day only will be evaluated in females. • group 4 male animals given 80 mg/kg/day from Day 4 of dosing onwards due to mortality/morbidity.

[5] = system: Muta™ Mice; assay: as above; format: in vivo, mouse
Description: as §1, §2

Structure (SMILES): CN(C)C(=O)c1cc2cnc(Nc3ccc(N4CCN(N=O)CC4)cn3)nc2n1C1CCCC1 [DMP433, 7-cyclopentyl-N,N-dimethyl-2-((5-(4-nitrosopiperazin-1-yl)pyridin-2-yl)amino)-7H-pyrrolo[2,3-d]pyrimidine-6-carboxamide]
- sex difference in bioanalytical data [1]: approximately 2 fold
- time for which DMP433 formulations in vehicle are stable [2]: up to 8 days
- result of the gene mutation assay (capable of inducing mutation) [3]: positive
- MTD [4]: 100 mg/kg/day
- bodyweight, Range-Finder 3 ([5]; 50 mg/kg/day oral, 14 days): all animals except one (male M5209) had gained bodyweight
- clinical signs, Range-Finder 3 ([5]; 50 mg/kg/day oral, up to 14 days, Subgroup 2 animals): squinting, mild decreased activity and piloerection
- bodyweight, Range-Finder 2 ([5]; 100 mg/kg/day oral, 14 days): all animals gained bodyweight during the 14-day dosing period
- clinical signs, Range-Finder 2 ([5]; 100 mg/kg/day oral, up to 14 days, Subgroup 2 animals): squinting, partially closed eyes, fast respiration, mild hunched posture and piloerection
- outcome of Range-Finder 1 ([5]; 500 mg/kg/day oral, 6 males and 6 females): terminated on day 1 due to animal mortality/morbidity and convulsions
